In patent US20190070170A1, “METHOD OF S[…]-1” (Macau University of Science and Technology, priority 2017, published 2019):

Tests used:
PGE2 = PGE2 production in LPS-stimulated rat peritoneal macrophages (ELISA); type: cell-based; conditions: SIN 160, 320 or 640 μM or 0.5 μM DEX 1 h, then LPS 1 μg/ml 24 h
Protocol: (§1) Sprague-Dawley (SD) rats from the University of Hong Kong were housed in cages with free access to food and water. Peritoneal macrophages of SD rats were isolated as described in Liu J. et al., Pharmacological research 2016, 111:303-315. Briefly, untreated rats were sacrificed and after laparotomy, about 50 ml cold sterile Hank's balanced salt solution (HBSS) was used to lavage the peritoneal cavity at twice, and then the peritoneal lavage fluid was collected and centrifuged at 1500 rpm for 10 min. The cell pellets was suspended at a density 1.5×10^6 cells/ml in pre-hearted DMEM medium with 10% heat-inactivated FBS, penicillin G (100 units/ml), streptomycin ([…]), and L-glutamine (2 mM), followed by seeding in 6-well plates at a density of 4.5×10^6 cells and incubation for 2 h. Then the medium were discarded to remove the non-adherent cells. The adherent cells were further washed for two times with pre-heated DMEM medium to remove floating cells. Next, cells were pre-treated with various concentration of SIN for 1 h, followed by stimulation with LPS (1 μg/ml).
RAW264.7 cells and rat peritoneal macrophages were seeded in a 96-well plate at density of 1.4×10^4 and 1.5×10^5 cells, respectively. […] The optical density was measured at 570 nm against a reference wavelength of 650 nm using a microplate UV/VIS spectrophotometer (Tecan, Mannedorf, Switzerland). […]

mPGES-1 = mPGES-1 protein expression in IL-1β-stimulated A549 cells (western blotting); type: cell-based; conditions: IL-1β with SIN or DEX for 48 h
Protocol: RAW264.7 and A549 cell lines were obtained from American Type Culture Collection (ATCC, Manassas, Va., USA) and maintained in DMEM (RAW264.7) or 1640 (A549) medium containing 10% FBS (Gibco-BRL, Grand Island, N.Y., USA) and antibiotics at 37° C. in a humidified atmosphere containing 5% CO2. RAW264.7 cells were plated in 6-well plates at a density of 4×10^5 cells and incubated for 24 h, then the cells were pretreated with different concentrations of SIN for 1 h before stimulating with LPS (100 ng/ml). A549 cells were seeded in 6-well plates at a density of 1×10^5 cells and incubated for 24 h, followed by pretreatment with SIN. A549 cells were then stimulated by IL-1β (1 ng/ml).
Whole-cell and nuclear proteins were obtained using RIPA lysis buffer (CST, Boston, Mass., USA) and Nuclear and Cytoplasmic Extraction Reagents kit from Thermo Scientific (Asheville, N.C., USA), respectively. For immunoblotting, proteins from whole-cell, cytoplasm, nuclear, and microsomal fractions were separated on SDS-PAGE, then transferred onto a nitrocellulose membrane from GE Healthcare Life Sciences (Buckinghamshire, UK), and incubated with 5% skimmed milk at room temperature for 1 h. […] The levels of protein expression were measured using Odyssey v3.0 software from Li-COR (Lincoln, Nebr., USA).

[1] = system: carrageenan-induced paw edema; test: Carrageenan-induced rat paw edema model; type: in vivo, SD rats; conditions: SIN 25, 50 and 100 mg/kg i.p. 2 h before carrageenan
Protocol: The model of carrageenan-induced paw edema was performed with SD rats (150-200 g). […] Briefly, rats were fasted for 12 h before experiment and intraperitoneal injection was performed with three different doses (25, 50 and 100 mg/kg) of SIN, or DEX (reference drug, 2 mg/kg) or 0.9% saline (Vehicle and Normal group rats), at 2 h prior to the induction of paw edema. Paw edema was induced by subcutaneous injection of 100 μl of 1% (w/v) freshly prepared λ-carrageenan (Sigma, St Louis, Mo., USA) diluted in saline in the right hind foot pad. 100 μl sterile saline was injected to the rats in the right hind paw as normal control. Paw volumes (ml) of right hind foot of each rat were measured using a plethysmometer (type 7150; UGO Basile, Comerio, Italy) at 0 h (before carrageenan injection) and then again at 1, 2, 3 and 4 h after the injection of carrageenan or saline. The percentage of paw edema of the right hind paws of all groups were calculated at different time points by the following equation: Swelling ratio in each time points=(the paw volume after injection−the paw volume before injection)/the paw volume before injection×100

[2] = system: collagen-induced arthritis; test: Collagen-II induced arthritis (CIA) in DBA/1 mice; type: in vivo; conditions: CIA DBA/1 mice; SIN 100 mg/kg i.p.
Protocol: Female DBA/1 mice (8-9 weeks old) were purchased from Shanghai SiLaike (SLAC) Laboratory Animal Company (Shanghai, China) and fed with a chow diet and water at room temperature. Equal volume of complete Freuend's adjuvant (CFA) and Bovine Type II Collagen (CII) were mixed and emulsified using a homogenizer (13,000 rpm) on ice. On day 0, DBA/1 mice were immunized by injecting 50 μl of CII in CFA in the tail, approximately 2 cm from the base of the tail. After injection, on day 18, mice with one or more than one paw inflamed were chosen and randomly divided into model group, SIN (100 mg/kg, i.p.) treatment group and MTX (10 mg/kg/week, p.o) treatment group, the mice without immunization were used as normal control. On day 21, these chosen mice were boosted through injecting the same volume of CII in IFA same as the day 0 immunization procedure. The incidence of joint swelling in each group was recorded every two days since drug treatment. Paw thickness (at the ankle joints of the hind paws) of each mouse was obtained by using vernier caliper to record the severity of paw swelling.
Arthritis score of each paw was evaluated every two days during experiment with the following criteria: • 0: no evidence of erythema and swelling; • 1: erythema and mild swelling confirmed to the tarsals or ankle joint; • 2: erythema and mild swelling extending from the ankle to the tarsal joints; • 3: erythema and moderate swelling extending from the ankle to metatarsal joints; and • 4: erythema and severe swelling encompass the ankle, foot and digits, or ankylosis of the limb.
The score of each paw was summed for a score of 0-16 for each mouse. Mice were then sacrificed and hind paws were removed and freshly frozen in liquid nitrogen and stored at −80° C. until used.

iNOS = iNOS protein level in LPS-stimulated rat peritoneal macrophages (immunoblotting); type: cell-based; conditions: pretreatment 1 h, LPS 1 μg/ml 24 h
Protocol: as §1
Whole-cell and nuclear proteins were obtained using RIPA lysis buffer (CST, Boston, Mass., USA) and Nuclear and Cytoplasmic Extraction Reagents kit from Thermo Scientific (Asheville, N.C., USA), respectively. […] The levels of protein expression were measured using Odyssey v3.0 software from Li-COR (Lincoln, Nebr., USA).

**Q.** For COC1=C[C@@H]2[C@@H]3Cc4ccc(OC)c(O)c4[C@]2(CCN3C)CC1=O [SIN, sinomenine], which PGE2 production (PGE2) is on record?
**A.** Its PGE2 production is “significant inhibition of PGE2 production in a dose dependent manner”.

**Q.** And the mPGES-1 protein expression (mPGES-1)?
**A.** The mPGES-1 protein expression was “significantly and dose-dependently inhibited”.

**Q.** And the “paw edema (percentage of increase in paw volume)” value ([1]; at 2, 3 and 4 h)?
**A.** The value was “successfully reduced paw edema in a dose dependent manner”.

**Q.** What about the “paw edema (percentage of increase in paw volume)” value ([1]; at 1 h) of the same compound?
**A.** Its value is “no effects”.

**Q.** What about the “arthritic scores (total of four paws)” value [2] of the same compound?
**A.** Its value is “decreased”.

**Q.** What about the “average thickness of the inflamed hind paws” value [2] of the same compound?
**A.** The value was “decreased average thickness”.

**Q.** What about the “onset of joint swelling (incidence of arthritis)” value [2] of the same compound?
**A.** The value was “delayed the onset of the joint swelling”.

**Q.** And the iNOS expression (iNOS)?
**A.** Its iNOS expression is “significantly inhibited”.
